Counter-ions that a name gives are not always drawn. Like-named read-outs stand apart in the source and are kept apart here.
Experiments:
5-HT2A receptor = molecular target: T1, 5-HT2A receptor (Homo sapiens, UniProt P28223); assay: FLIPR Ca2+ flux agonist assay at 5-HT2A (HEK293); type: cell-based
T1 construct: host or cells: HEK293
Description: (§1) A solution of 250 mM probenecid in 1 mL FLIPR assay buffer was prepared fresh. This was combined with a fluorescent dye (Fluo-4 Direct™) to make a final assay concentration of 2.5 mM. […] The fluorescent dye was then added to the assay plate along with assay buffer to a final volume of 40 μL. The cell plate was incubated for 50 min at 37° C. and 5% CO2 and placed into the FLIPR Tetra along with the compound plate. 10 μL of references and compounds were then transferred from the compound plate into the cell plate and the fluorescent signal was read.

5-HT2B receptor = molecular target: T2, 5-HT2B receptor (Homo sapiens, UniProt P41595); assay: FLIPR Ca2+ flux agonist assay at 5-HT2B (HEK293); type: cell-based; conditions: for 5-HT2B % Act @ Max Dose: Ca2+ flux, agonist mode, HEK293
T2 construct: host or cells: HEK293
T2 sequence (P41595 whole entry): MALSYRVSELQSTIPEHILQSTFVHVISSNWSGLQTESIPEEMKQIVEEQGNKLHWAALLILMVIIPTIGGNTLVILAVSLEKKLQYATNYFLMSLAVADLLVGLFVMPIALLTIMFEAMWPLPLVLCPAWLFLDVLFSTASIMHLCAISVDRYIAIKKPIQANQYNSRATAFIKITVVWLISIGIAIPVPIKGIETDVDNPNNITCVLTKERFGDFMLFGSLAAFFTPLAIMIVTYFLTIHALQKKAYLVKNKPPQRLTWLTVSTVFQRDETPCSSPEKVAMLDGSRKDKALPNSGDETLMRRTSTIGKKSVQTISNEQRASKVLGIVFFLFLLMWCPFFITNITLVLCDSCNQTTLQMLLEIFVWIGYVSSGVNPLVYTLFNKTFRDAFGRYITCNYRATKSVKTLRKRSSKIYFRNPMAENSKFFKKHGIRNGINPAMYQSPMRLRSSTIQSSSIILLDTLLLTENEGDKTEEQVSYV
Description: as §1

5-HT1A receptor = molecular target: T3, 5-HT1A receptor (Homo sapiens, UniProt P08908); assay: FLIPR Ca2+ flux agonist assay at 5-HT1A (CHO cells); type: cell-based; conditions: for fold more potent at 5-HT1A than dimethyl (and methylethyl) counterparts: Ca2+ flux EC50 compared with DMT/MET, psilocin/4-HO-MET, 5-MeO-DMT; for 5-HT1A % Act @ Max Dose: Ca2+ flux, agonist mode, CHO cells
T3 construct: host or cells: CHO cells
T3 sequence (P08908 1-422): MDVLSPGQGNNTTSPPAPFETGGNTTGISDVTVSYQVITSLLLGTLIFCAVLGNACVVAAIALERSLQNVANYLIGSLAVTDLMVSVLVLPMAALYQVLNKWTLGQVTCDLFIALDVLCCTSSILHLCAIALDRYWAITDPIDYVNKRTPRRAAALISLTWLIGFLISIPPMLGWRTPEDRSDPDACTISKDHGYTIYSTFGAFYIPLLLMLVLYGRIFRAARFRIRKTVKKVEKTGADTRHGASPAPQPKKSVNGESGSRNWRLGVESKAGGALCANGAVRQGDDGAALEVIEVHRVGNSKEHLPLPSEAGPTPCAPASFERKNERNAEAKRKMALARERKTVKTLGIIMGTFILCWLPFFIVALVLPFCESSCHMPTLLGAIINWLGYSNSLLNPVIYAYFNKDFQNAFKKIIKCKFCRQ
Description: as §1

C57BL/6 mice = assay: Head twitch response (HTR) in mice; type: in vivo, mouse; conditions: SC; for maximal effect in the HTR assay: maximum over doses tested
[1] = Stability in rat brain homogenate; conditions: for half-life at 1 μM: male, Sprague Dawley, rat, rat brain homogenate; for % Compound Remaining (after 120 min) / t1/2: rat brain homogenate (male Sprague Dawley), 1 μM, 37° C.
[2] = Stability in mouse brain homogenate; conditions: for half-life at 1 μM: male, CD-1, mouse, mouse brain homogenate; for % Compound Remaining (after 120 min) / t1/2: mouse brain homogenate (male CD-1), 1 μM, 37° C.
[3] = Metabolic stability in human liver microsomes (HLM); conditions: for half-life at 1 μM / microsomal CLint at 1 μM: both, human, pooled human liver microsomes, pH 7.4; for metabolic stability in HLM compared with dimethyl counterpart: vs DMT, psilocin, 5-MeO-DMT respectively; for t1/2: HLM, 1 μM test compound, 0.50 mg protein/mL, NADPH, 37° C., 60 min
[4] = Chemical stability of the product on storage and analysis; type: physicochemical; conditions: storage and handling
Description: Note: The product 2 is unstable and should be stored frozen, protected from light, and under inert gas. If stored properly, stability has been confirmed by qNMR for at least 1 month.
A mixture of 3-(2-(azetidin-1-yl)ethyl)-1H-indol-4-ol (2, 50 mg, 231.18 μmol, 1 eq) and pyridine (23.77 mg, 300.54 μmol, 24.26 μL, 1.3 eq) in DCM (1 mL) was cooled to 0° C. Then acetic anhydride (25.96 mg, 254.30 μmol, 23.82 μL, 1.1 eq) was added dropwise at 0° C. and the resulting mixture was stirred at 25° C. for 1 h. At this time, the solvent was removed and the residue was purified by prep-HPLC (column=Waters Xbridge BEH C18 (100*30 mm, 10 μm); mobile phase=water(NH4HCO3)-ACN, B %=5%-40%; 10 min run time) to provide 3-(2-(azetidin-1-yl)ethyl)-1H-indol-4-yl acetate (4) as a white solid (20 mg, 33% yield). ^1H NMR (400 MHz, DMSO-d6) δ 11.01 (br s, 1H), 7.22 (d, J=8.0 Hz, 1H), 7.11 (d, J=1.6 Hz, 1H), 7.02 (t, J=8.0 Hz, 1H), 6.64 (d, J=7.6 Hz, 1H), 3.09 (t, J=6.8 Hz, 4H), 2.57-2.54 (m, 4H), 2.32 (s, 3H), 1.96-1.90 (m, 2H); LCMS (RT=0.983 min, MS calc.: 258.14, [M+H]+=259.1).

[5] = Pro-drug conversion to Compound 2 after administration to an animal; type: in vivo; conditions: when administered to an animal, for example a human
human 5-HT2C receptor = molecular target: T4, human 5-HT2C receptor (Homo sapiens, UniProt P28335); assay: cell-based; conditions: Ca2+ flux, agonist mode
T4 sequence (P28335 33-458): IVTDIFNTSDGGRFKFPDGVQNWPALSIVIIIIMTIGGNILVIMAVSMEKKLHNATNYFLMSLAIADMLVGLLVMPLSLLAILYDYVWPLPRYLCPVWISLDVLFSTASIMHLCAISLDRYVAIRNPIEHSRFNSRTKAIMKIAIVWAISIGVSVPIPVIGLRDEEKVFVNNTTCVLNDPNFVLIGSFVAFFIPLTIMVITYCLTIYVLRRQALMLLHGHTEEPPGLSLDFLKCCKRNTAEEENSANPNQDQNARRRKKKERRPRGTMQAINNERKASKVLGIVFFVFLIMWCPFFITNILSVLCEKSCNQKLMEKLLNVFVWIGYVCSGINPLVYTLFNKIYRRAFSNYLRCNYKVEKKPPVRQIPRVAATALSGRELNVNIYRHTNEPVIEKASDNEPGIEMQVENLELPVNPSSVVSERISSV

[6] = Ca2+ flux, agonist mode, HEK293
[7] = Ca2+ flux, agonist mode, HEK293, read-out: 5-HT2A EC50

T1 sequence (P28223 whole entry): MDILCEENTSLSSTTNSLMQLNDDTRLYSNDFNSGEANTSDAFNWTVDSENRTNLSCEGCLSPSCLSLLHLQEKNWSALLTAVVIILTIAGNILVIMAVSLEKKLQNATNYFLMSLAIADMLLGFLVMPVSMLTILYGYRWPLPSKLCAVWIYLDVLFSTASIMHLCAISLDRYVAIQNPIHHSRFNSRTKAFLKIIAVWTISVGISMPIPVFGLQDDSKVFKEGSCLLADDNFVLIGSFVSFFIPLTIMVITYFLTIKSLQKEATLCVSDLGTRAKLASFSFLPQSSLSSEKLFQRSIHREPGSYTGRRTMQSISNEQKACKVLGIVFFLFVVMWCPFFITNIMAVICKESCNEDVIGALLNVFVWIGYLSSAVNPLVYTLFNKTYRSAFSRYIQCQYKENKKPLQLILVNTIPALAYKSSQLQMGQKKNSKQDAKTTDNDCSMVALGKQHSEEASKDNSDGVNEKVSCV

Row | SMILES | 5-HT2A % Act @ Max Dose (5-HT2A receptor; [6]) [%] | EC50 (5-HT2B receptor) [nM] | 5-HT2B % Act @ Max Dose (5-HT2B receptor) [%] | EC50 (5-HT1A receptor) [nM] | 5-HT1A % Act @ Max Dose (5-HT1A receptor) [%] | % Compound Remaining (after 120 min) [1] [%] | % Compound Remaining (after 120 min) [2] [%] | microsomal CLint at 1 μM [3] [µL/min/mg] | t1/2 [1] [h] | t1/2 [2] [h] | t1/2 [3] [h] | further results
1 | c1ccc2c(CCN3CCC3)c[nH]c2c1 [Compound 1, 3-(2-(azetidin-1-yl)ethyl)-1H-indole fumarate] | 73.2 | 917 | 22.6 | 745 | 135 | 91.9 | 111.3 | 12.4 |  |  |  | EC50 (5-HT2A receptor; [7]): 90.4 nM; fold more potent at 5-HT1A than dimethyl (and methylethyl) counterparts (5-HT1A receptor): > 50 fold; Average HTR Over 20-min Test (C57BL/6 mice; dose 0.1 mg/kg): 5.00; Average HTR Over 20-min Test (C57BL/6 mice; dose 1 mg/kg): 2.17; Average HTR Over 20-min Test (C57BL/6 mice; dose 10 mg/kg): 1.00; stability in rat brain homogenate (in words) [1]: good stability; half-life at 1 μM [1]: > 4.82 h; stability in mouse brain homogenate (in words) [2]: good stability; half-life at 1 μM [2]: > 4.82 h; half-life at 1 μM [3]: 1.86 h; metabolic stability in HLM compared with dimethyl counterpart [3]: greater metabolic stability
2 | COc1ccc2[nH]cc(CCN3CCC3)c2c1 [Compound 3, 3-(2-(azetidin-1-yl)ethyl)-5-methoxy-1H-indole fumarate] | 99.3 | 274 | 35.0 | 21.1 | 112 | 98 | 103.1 | < 9.6 |  |  |  | EC50 (5-HT2A receptor; [7]): 7.15 nM; fold more potent at 5-HT1A than dimethyl (and methylethyl) counterparts (5-HT1A receptor): > 10 fold; stability in rat brain homogenate (in words) [1]: good stability; half-life at 1 μM [1]: > 4.82 h; stability in mouse brain homogenate (in words) [2]: good stability; half-life at 1 μM [2]: > 4.82 h; half-life at 1 μM [3]: > 2.42 h; metabolic stability in HLM compared with dimethyl counterpart [3]: greater metabolic stability
3 | CC(=O)Oc1cccc2[nH]cc(CCN3CCC3)c12 [Compound 4, 3-(2-(azetidin-1-yl)ethyl)-1H-indol-4-yl acetate] |  |  |  |  |  |  |  |  |  |  |  | stability compared with Compound 2 [4]: more stable to oxidation than Compound 2; hydrolysis of the ester to Compound 2 as active metabolite [5]: rapidly hydrolyzed
4 | CCN(C)CCc1c[nH]c2cccc(O)c12 [Compound 4-HO-MET, 3-(2-(ethyl(methyl)amino)ethyl)-1H-indol-4-ol, reference compound] | 103 | > 10000 | 1.09 | 14700 | 73.0 |  |  |  |  |  |  | EC50 (5-HT2A receptor): 15.1 nM; Average HTR Over 20-min Test (C57BL/6 mice; dose 0.1 mg/kg): 9.50; Average HTR Over 20-min Test (C57BL/6 mice; dose 1 mg/kg): 20.83; Average HTR Over 20-min Test (C57BL/6 mice; dose 10 mg/kg): 11.33; maximal effect in the HTR assay (C57BL/6 mice): 20.8 head twitches/20 min
5 | O=P(O)(O)Oc1cccc2[nH]cc(CCN3CCC3)c12 [Compound 5, 3-(2-(azetidin-1-yl)ethyl)-1H-indol-4-yl dihydrogen phosphate] |  |  |  |  |  |  |  |  |  |  |  | stability compared with Compound 2 [4]: more stable than Compound 2; hydrolysis of the ester to Compound 2 as active metabolite [5]: rapidly hydrolyzed
6 | COc1ccc2[nH]cc(CCN(C)C)c2c1 [Compound 5-MeO-DMT, reference compound] | 106 |  | 17.6 |  | 100 | 0.3 | 91.2 | 102 | 0.24 | >4.818 | 0.227 | 
7 | CN(C)CCc1c[nH]c2ccccc12 [DMT, N,N-dimethyltryptamine, reference compound] | 93.4 |  | 10.4 |  | 68.1 | 0.0 | 0.0 | 199 | 0.085 | 0.107 | 0.117 | 
8 | COc1cc(CC(C)N)c(OC)cc1I (stereo not shown) [DOI, 4-iodo-2,5-dimethoxyamphetamine, reference compound] |  |  |  |  |  |  |  |  |  |  |  | maximal effect in the HTR assay (C57BL/6 mice): 35.6 head twitches/20 min
9 | CCN(C)CCc1c[nH]c2ccccc12 [MET, N-ethyl-2-(1H-indol-3-yl)-N-methylethan-1-amine, reference compound] | 36.2 | > 100000 | 22.5 | 89400 | 73.6 |  |  |  |  |  |  | EC50 (5-HT2A receptor): 17.1 nM; 5-HT2C % Act @ Max Dose (human 5-HT2C receptor): 89.7%; EC50 (human 5-HT2C receptor): 28.3 nM
10 | CN(C)CCc1c[nH]c2cccc(O)c12 [Psilocin, psilocin, reference compound] |  |  | 1.44 | 5260 | 66.4 | 46.1 | 97.6 | 127 | 1.913 | >4.818 | 1.828 | 
